Format in all cases: in vivo
The subject of test [1] is Aphis gossypii. In words: Efficacy test against Aphis gossypii (Test Example 2). The settings on record: 144 h, sprayed on cucumber plants with nymphs, 6 days after spraying, read-out: Insect mortality rate. Here is the method:
(§1) 5 parts of the compound of the present invention, 93.6 parts of dimethylformamide and 1.4 parts of polyoxyethylene alkyl aryl ether were mixed and dissolved to prepare Emulsion (I) including 5% of an active ingredient. For the control, Emulsion (II) was prepared by mixing and dissolving 93.6 parts of dimethylformamide and 1.4 parts of polyoxyethylene alkyl aryl ether.
(§2) An insect mortality rate was calculated by the numerical equation shown below.
(§3) Insect mortality rate (%)={(Number of dead insects)/(Number of sample insects)}×100
Cucumber seedlings were inoculated with nymphs of Aphis gossypii. Emulsion (I) was diluted with water so that the concentration of the compound of the present invention was 125 ppm. Subsequently, the aforementioned diluted liquid was sprayed on the cucumber plants on which the nymphs of Aphis gossypii were parasitic. The aforementioned cucumber plants were then placed in a thermostatic chamber with a temperature of 25° C. and humidity of 60%. Mortality was investigated 6 days after spraying was carried out, and the insect mortality rate of Aphis gossypii was calculated.

Test [2] deals with Mythimna separata. The test can be described thus: Efficacy test against Mythimna separata (Test Example 1). The settings on record: 144 h, corn leaves soaked, second-instar larvae, 6 days after inoculation, read-out: Insect mortality rate. Here is the method: as §1, §2, §3
(Test Example 1) Efficacy Test against Mythimna separata Emulsion (I) was diluted with water so that the concentration of the compound of the present invention was 125 ppm. Corn leaves were soaked in the diluted liquid for 30 seconds. Subsequently, the corn leaves were put on Petri dishes, followed by inoculating 5 second-instar larvae of Mythimna separata. The Petri dishes were placed in a thermostatic chamber at a temperature of 25° C. and humidity of 60%. Mortality was investigated 6 days after inoculation, and the insect mortality rate was calculated.

For test [3], the system named is Thrips palmi. The test can be described thus: Efficacy test against Thrips palmi, spray on cucumber seedlings (Test Example 3). The settings on record: 168 h, sprayed on cucumber seedlings, 7 days after spraying, read-out: controlling rate. Here is the method:
as §1
Cucumber seedlings were inoculated with 8 adults of Thrips palmi. Emulsion (I) was diluted with water so that the concentration of the compound of the present invention was 125 ppm. Subsequently, the aforementioned diluted liquid was sprayed on the cucumber seedlings, and then air dried. The number of the parasitic larvae was counted 7 days after spraying. The efficacy of the compounds was evaluated by the controlling rate described below.
Controlling rate (%)={1−(Nt)/(Nc)}×100
In which Nt: number of parasites at the legion spray-treated. • Nc: number of parasites at the legion non-treated (control).

Consider `CN1OC2(CCCOc3ccccc32)N=C1NC(C)(C)C` (stereo not drawn) [a-26], for which the mortality (as a rule, the percentage killed) at 125 ppm in test [1] is at least 80%.

For the compound `CN1OC2(N=C1NC(C)(C)C)c1ccccc1COc1ccccc12` (stereo not drawn) [a-11, N-(tert-butyl)-2′-methyl-2′H,6H-spiro[dibenzo[b,e]oxepine-11,5′-[1,2,4]oxadiazol]-3′-amine], in test [2], the mortality at 125 ppm is at least 80%. In test [3], the pest or weed control at 125 ppm was at least 80%. As for `CN1OC2(CC(c3ccccc3)c3ccccc32)N=C1NC(C)(C)C` (stereo not drawn) [a-25], the mortality at 125 ppm in test [2] and in test [1] was at least 80% throughout. Moreover, in test [3], the pest or weed control at 125 ppm is at least 80%.

For the compound `CN1OC2(Cc3ccccc3Oc3ccccc32)N=C1NC(C)(C)C` (stereo not drawn) [a-22, N-(tert-butyl)-2′-methyl-2′H, 11H-spiro[dibenzo[b,f]oxepine-10,5′-[1,2,4]oxadiazol]-3′-amine], the pest or weed control at 125 ppm in test [3] is at least 80%. Take `CN1OC2(CC(C)(C)Oc3ccc(F)cc32)N=C1NC(C)(C)C` (stereo not drawn) [a-20, N-(tert-butyl)-6-fluoro-2,2,2′-trimethyl-2′H-spiro [chromane-4,5′-[1,2,4]oxadiazol]-3′-amine]: the mortality at 125 ppm in test [2] and in test [1] was at least 80% throughout. As for `CN1OC2(N=C1N(C)C(C)(C)C)c1ccccc1CCc1sc(Cl)cc12` (stereo not drawn) [a-37], the pest or weed control at 125 ppm in test [3] is at least 80%. For the compound `CN1OC2(N=C1NC(C)(C)C)c1ccc(Cl)cc1OCCC2c1ccccc1` (stereo not drawn) [a-29], the mortality at 125 ppm in test [2] was at least 80%. Turning to `CC(C)(C)NC1=NC2(CCc3ccccc32)ON1N` (stereo not drawn) [a-24], the mortality at 125 ppm in test [1] is at least 80%. Turning to `CN1OC2(N=C1N(C)C(C)(C)C)c1ccccc1COc1ccccc12` (stereo not drawn) [a-23], the pest or weed control at 125 ppm in test [3] is at least 80%. With `CCN(C1=NC2(ON1N)c1ccccc1C=Cc1ccccc12)C(C)(C)C` [a-18], the mortality at 125 ppm in test [2] was at least 80%.

`CC1CCOc2cc(Cl)ccc2C12N=C(NC(C)(C)C)N(N)O2` (stereo not drawn) [a-30]: the mortality at 125 ppm in test [2] is at least 80%. In the case of `CC(C)(C)NC1=NC2(CCCc3ccccc32)ON1N` (stereo not drawn) [a-21], the mortality at 125 ppm in test [1] is at least 80%. Consider `CN1OC2(N=C1N(C)C(C)(C)C)c1ccccc1C=Cc1ccccc12` [a-17], for which the pest or weed control at 125 ppm in test [3] is at least 80%. Turning to `CN1OC2(N=C1NC(C)(C)C)c1ccccc1C=Cc1ccccc12` [a-19], the mortality at 125 ppm in test [2] is at least 80%. Regarding `CN1OC2(N=C1NC(C)(C)C)c1ccccc1CCCc1ccccc12` [Compound A-1], in test [1], the mortality at 125 ppm is at least 80%. In the case of `CN1OC2(N=C1N(C)C(C)(C)C)c1ccccc1CCc1sccc12` (stereo not drawn) [a-36], the pest or weed control at 125 ppm in test [3] is at least 80%. Regarding `CCN(C1=NC2(ON1N)c1ccccc1CCc1sc(Cl)cc12)C(C)(C)C` (stereo not drawn) [a-38], the pest or weed control at 125 ppm in test [3] was at least 80%. With `CN1OC2(N=C1N(C)C(C)(C)C)c1ccccc1CCCc1ccccc12` [Compound A-2], in test [1], the mortality at 125 ppm was at least 80%. On to `Cc1cc2c(s1)CCc1ccccc1C21N=C(NC(C)(C)C)N(C)O1` (stereo not drawn) [a-31], for which the pest or weed control at 125 ppm in test [3] is at least 80%.

Turning to `CCN(C1=NC2(ON1C)c1ccccc1COc1ccccc12)C(C)(C)C` (stereo not drawn) [a-10], the mortality at 125 ppm in test [2] and in test [1] was at least 80% each time. Further, the pest or weed control at 125 ppm in test [3] was at least 80%. On to `CN(C1=NC2(ON1N)c1ccccc1CCc1ccccc12)C(C)(C)C` [a-35], for which the pest or weed control at 125 ppm in test [3] was at least 80%.

(Values after patent US20200170254A1, “OXADIAZOLINE COMPOUND AND FORMULATION FOR CONTROLLING HARMFUL ORGANISMS” (Nippon Soda Co., Ltd., priority 2017, published 2020).)
